Experimental data taken from PMC7770833, “Design, Synthesis, and Biological Evaluation of a Series of Oxazolone Carboxamides as a Novel Class of Acid Ceramidase Inhibitors” (Journal of Medicinal Chemistry, 2020).

System: human neuroblastoma SH-SY5Y cells
Experiment: Sphingolipid levels in SH-SY5Y cells (LC/MS)
Assay type: cell-based
Protocol: SH-SY5Y cells were purchased from Sigma Aldrich (Italy) and cultured in DMEM containing 10% FBS at 37 °C and 5% CO2. Drugs were dissolved in DMSO (10 mM) and diluted in cell culture medium with reduced serum (1%) for cell treatments.
Lipid extraction and SL measurements were performed as previously described.[59],[61],[75] Lipids were extracted with a CHCl3/MeOH mixture (2:1, 3 mL) spike with internal standards. The organic phase was collected, dried under N2, and dissolved in CHCl3/MeOH (1:3) for LC/MS analyses. Ceramides and sphingosine were analyzed by LC/MS/MS, using a Waters Acquity UPLC coupled to a Waters Xevo triple quadrupole mass spectrometer (TQMS) and interfaced with an ESI ion source. Separation was performed on a Waters Acquity BEH C18 1.7 μm column (2.1 × 50 mm) at 60 °C. A linear gradient of 0.1% HCOOH in CH3CN/i-PrOH (20:80) as solvent B in 0.1% HCOOH in CH3CN/H2O (20:80) as solvent A and was applied at a flow rate of 0.4 mL/min. The detection of SLs was performed in positive ion mode. Capillary voltage was 3.5 kV and cone voltage was 25 V. The source temperature and desolvation temperatures were set at 120 and 600 °C, respectively. Desolvation gas and cone gas (N2) flows were 800 and 20 L/h, respectively. Ceramides were identified by comparison of their LC retention times and MS/MS fragmentation patterns with those of authentic standards (Avanti Polar Lipids). Multiple reaction monitoring (MRM) ion chromatograms were used to quantify dihydroceramide (Cer(d18:0/16:0), Rt = 4.6 min, m/z: 540.5 > 522.5), palmitoyl ceramide (Cer(d18:1/16:0), Rt = 4.5 min, m/z: 520.3 > 264.2) sphingosine (So(d18:1), Rt = 2.6 min, m/z: 300.2 > 282.2), sphingomyelin (SM(d18:1/16:0), Rt = 4.2 min, m/z: 703.2 > 184.1) and hexosylceramide (HexCer (d18:1/16:0), 4.3 min, m/z: 682.2 > 264.2). Detection and analysis were controlled by Waters MassLynx software version 4.1. Calibration curves were prepared for every experiment.

SMILES: CCCCCNC(=O)n1cc(-c2ccc(F)cc2C2CCN(C)CC2)oc1=O [Compound 32b, 5-[4-Fluoro-2-(1-methyl-4-piperidyl)phenyl]-2-oxo-N-pentyl-oxazole-3-carboxamide]
- Cer (d18:0/16:0) level (10 μM, time course up to 6 h): increased
- Cer (d18:1/16:0) level (10 μM, time course up to 6 h): increased
- HexCer (d18:1/16:0) level (10 μM, time course up to 6 h): No major variations
- SM (d18:1/16:0) level (10 μM, time course up to 6 h): No major variations
- So levels (10 μM, time course up to 6 h): decreased
- Cer (d18:0/16:0) level (3 h incubation, 1-10 μM): accumulation
- Cer (d18:1/16:0) level (3 h incubation, 1-10 μM): accumulation
- HexCer (d18:1/16:0) level (3 h incubation, 1-10 μM): no major variations
- SM (d18:1/16:0) level (3 h incubation, 1-10 μM): no major variations
- So levels (3 h incubation, 1-10 μM): decrease
